Values quoted from earlier work in US6881247B2, “Protective barrier coating composition” (priority 2003, dated 2005).

Conditions: calcium hydroxide

Compound: [Ca+2].[OH-].[OH-] [calcium hydroxide, Calcium hydroxide]
- pH: 12.4
